Reference: US11795460B2, “Compositions and methods for TTR gene editing and treating ATTR amyloidosis” (Intellia Therapeutics, Inc., priority 2017, dated 2023)

The sequences below were run on TTR (assay: TTR editing in primary cyno hepatocytes electroporated with Spy Cas9 protein and dgRNAs (Tables 10, 11)). Settings: Table 10; primary cyno hepatocytes electroporated with Spy Cas9 protein (RNP) and dgRNAs.
Format: cell-based, cynomolgus monkey
Procedure: Primary liver hepatocytes. Primary human liver hepatocytes (PHH) and primary cynomolgus liver hepatocytes (PCH) (Gibco) were cultured per the manufacturer's protocol (Invitrogen, protocol 11.28.2012). In brief, the cells were thawed and resuspended in hepatocyte thawing medium with supplements (Gibco, Cat. CM7000) followed by centrifugation at 100 g for 10 minutes for human and 80 g for 4 minutes for cyno. The supernatant was discarded and the pelleted cells resuspended in hepatocyte plating medium plus supplement pack (Invitrogen, Cat. A1217601 and CM3000). Cells were counted and plated on Bio-coat collagen I coated 96-well plates (ThermoFisher, Cat. 877272) at a density of 33,000 cells/well for human or 60,000 cells/well for cyno (or 65,000 cells/well when assaying effects on TTR protein, described further below). Plated cells were allowed to settle and adhere for 6 or 24 hours in a tissue culture incubator at 37° C. and 5% CO2 atmosphere. After incubation cells were checked for monolayer formation and media was replaced with hepatocyte culture medium with serum-free supplement pack (Invitrogen, Cat. A1217601 and CM4000).
[…] formation was performed prior to electroporation or transfection of Spy Cas9 protein loaded with guide RNAs (RNPs) onto cells. For dual guide (dgRNAs), individual crRNA and trRNA was pre-annealed by mixing equivalent amounts of reagent and incubating at 95° C. for 2 min and cooling to room temperature. Single guide (sgRNAs) were boiled at 95° C. for 2 min and cooling to room temperature. The boiled dgRNA or sgRNA was incubated with Spy Cas9 protein in Optimem for 10 minutes at room temperature to form a ribonucleoprotein (RNP) complex.
For RNP electroporation into primary human and cyno hepatocytes, the cells are thawed and resuspended in Lonza electroporation Primary Cell P3 buffer at a concentration of 2500 cells per μL for human hepatocytes and 3500 cells per μL for cyno hepatocytes. A volume of 20 μL of resuspended cells and 5 μL of RNP are mixed together per guide. 20 μL of the mixture is placed into a Lonza electroporation plate. The cells were electroporated using the Lonza nucleofector with the preset protocol EX-147. Post electroporation, the cells are transferred into a Biocoat plate containing pre-warmed maintenance media and placed in a tissue culture incubator at 37° C. and 5% CO2.
Transfected cells were harvested post-transfection at 24, 48, or 72 hours. The genomic DNA was extracted from each well of a 96-well plate using 50 μL/well BuccalAmp DNA Extraction solution (Epicentre, Cat. QE09050) per manufacturer's protocol. All DNA samples were subjected to PCR and subsequent NGS analyses, as described herein.
To quantitatively determine the efficiency of editing at the target location in the genome, sequencing was utilized to identify the presence of insertions and deletions introduced by gene editing.
Primers were designed around the target site within the gene of interest (e.g. TTR), and the genomic area of interest was amplified.
Additional PCR was performed per the manufacturer's protocols (Illumina) to add chemistry for sequencing. The amplicons were sequenced on an Illumina MiSeq instrument. The reads were aligned to a reference genome (e.g., the human reference genome (hg38), the cynomologus reference genome (mf5), the rat reference genome (rn6), or the mouse reference genome (mm10)) after eliminating those having low quality scores. The resulting files containing the reads were mapped to the reference genome (BAM files), where reads that overlapped the target region of interest were selected and the number of wild type reads versus the number of reads which contain an insertion, substitution, or deletion was calculated.
The editing percentage (e.g., the “editing efficiency” or “percent editing” or “indel frequency”) is defined as the total number of sequence reads with insertions/deletions (“indels”) or substitutions over the total number of sequence reads, including wild type. […]

Sequence | Avg % Deletion [%] | Avg % Edit [%] | Avg % Insert [%]
UGGACUGGUAUUUGUGUCUG (tested as dual guide RNA, chemistry not given here) [CR003340] | 4.80 | 12.53 | 7.72
GUCACAGAAACACUCACCGU (tested as dual guide RNA, chemistry not given here) [CR005301] | 0.42 | 46.76 | 46.34
AUUGGUGACGACAGCCGUGG (tested as dual guide RNA, chemistry not given here) [CR003389] | 0.78 | 18.83 | 18.05
CCGUGGUGGAAUAGGAGUAG (tested as dual guide RNA, chemistry not given here) [CR003386] | 2.03 | 5.54 | 3.51
GACGACAGCCGUGGUGGAAU (tested as dual guide RNA, chemistry not given here) [CR003388] | 0.22 | 6.81 | 6.59
UGUAGAAGGGAUAUACAAAG (tested as dual guide RNA, chemistry not given here) [CR003365] | 0.97 | 10.31 | 9.33
AUAGGAGUAGGGGCUCAGCA (tested as dual guide RNA, chemistry not given here) [CR003383] | 4.55 | 8.86 | 4.31
AUACCAGUCCAGCAAGGCAG (tested as dual guide RNA, chemistry not given here) [CR003338] | 0.05 | 44.94 | 44.89
ACCUCUGCAUGCUCAUGGAA (tested as dual guide RNA, chemistry not given here) [CR003371] | 0.14 | 1.83 | 1.69
UCUAGAACUUUGACCAUCAG (tested as dual guide RNA, chemistry not given here) [CR003345] | 22.19 | 52.92 | 30.74
AAAUAGACACCAAAUCUUAC (tested as dual guide RNA, chemistry not given here) [CR003366] | 0.90 | 18.52 | 17.62
GAAAGGCUGCUGAUGACACC (tested as dual guide RNA, chemistry not given here) [CR003352] | 0.09 | 1.25 | 1.16
UACUCACCUCUGCAUGCUCA (tested as dual guide RNA, chemistry not given here) [CR003372] | 0.32 | 2.15 | 1.83
CCUCCUCUGCCUUGCUGGAC (tested as dual guide RNA, chemistry not given here) [CR003336] | 0.07 | 8.18 | 8.10
UUUGACCAUCAGAGGACACU (tested as dual guide RNA, chemistry not given here) [CR003344] | 1.91 | 35.72 | 33.81
UGAAUCCAAGUGUCCUCUGA (tested as dual guide RNA, chemistry not given here) [CR005303] | 0.56 | 59.28 | 58.72
CCUCUGCAUGCUCAUGGAAU (tested as dual guide RNA, chemistry not given here) [CR003370] | 0.12 | 2.52 | 2.40
GGGAUUGGUGACGACAGCCG (tested as dual guide RNA, chemistry not given here) [CR003390] | 0.39 | 16.87 | 16.49

Sequence | Avg % Deletion [%] | Avg % Edit [%] | Avg % Insert [%]
GCCGUGGUGGAAUAGGAGUA (tested as dual guide RNA, chemistry not given here) [CR003387] | 0.17 | 4.72 | 4.55
GCAUGGGCUCACAACUGAGG (tested as dual guide RNA, chemistry not given here) [CR003362] | 0.22 | 4.59 | 4.36
AAUAGGAGUAGGGGCUCAGC (tested as dual guide RNA, chemistry not given here) [CR003384] | 1.25 | 3.75 | 2.50
AAAGUUCUAGAUGCUGUCCG (tested as dual guide RNA, chemistry not given here) [CR003346] | 0.09 | 1.91 | 1.82
GGCUGUCGUCACCAAUCCCA (tested as dual guide RNA, chemistry not given here) [CR003391] | 0.71 | 36.44 | 35.73
ACUGAGGAGGAAUUUGUAGA (tested as dual guide RNA, chemistry not given here) [CR003363] | 2.39 | 15.64 | 13.24
CCCCUACUCCUAUUCCACCA (tested as dual guide RNA, chemistry not given here) [CR003385] | 4.12 | 30.96 | 26.84
GGAGUAGGGGCUCAGCAGGG (tested as dual guide RNA, chemistry not given here) [CR003382] | 2.33 | 10.86 | 8.54
ACACAAAUACCAGUCCAGCA (tested as dual guide RNA, chemistry not given here) [CR003339] | 4.02 | 8.95 | 4.93
CUCUGCAUGCUCAUGGAAUG (tested as dual guide RNA, chemistry not given here) [CR003369] | 0.25 | 1.53 | 1.28
ACGUGUCUUCUCUACACCCA (tested as dual guide RNA, chemistry not given here) [CR005302] | 0.08 | 1.34 | 1.26
CUGGUAUUUGUGUCUGAGGC (tested as dual guide RNA, chemistry not given here) [CR003341] | 0.77 | 8.43 | 7.66
AGUCCCUCAUUCCUUGGGAU (tested as dual guide RNA, chemistry not given here) [CR003392] | 0.38 | 7.02 | 6.63
CUGAGGAGGAAUUUGUAGAA (tested as dual guide RNA, chemistry not given here) [CR003364] | 5.35 | 19.62 | 14.27
AAGUGCCUUCCAGUAAGAUU (tested as dual guide RNA, chemistry not given here) [CR003368] | 0.26 | 18.56 | 18.30
AAAGGCUGCUGAUGACACCU (tested as dual guide RNA, chemistry not given here) [CR003353] | 0.08 | 4.75 | 4.67
CCAGUCCAGCAAGGCAGAGG (tested as dual guide RNA, chemistry not given here) [CR003337] | 0.84 | 24.94 | 24.10
